Test results as given in paper PMC6522981, “Structure-based design generated novel hydroxamic acid based preferential HDAC6 lead inhibitor with on-target cytotoxic activity against primary choroid plexus carcinoma” (Journal of Enzyme Inhibition and Medicinal Chemistry, 2019).
Like-named read-outs stand apart in the source and are kept apart here.

What was measured:
[1] = target: T1, human HDAC1 (Homo sapiens, UniProt Q13547); assay: HDAC1 inhibitor enzymatic assay, % inhibition at fixed concentration (BPS Bioscience, fluorogenic); format: biochemical; conditions: read-out: %inhibition of HDACs at 10µM of test compound HDAC1; 10 µM compound; mean of two replicates
T1 construct: purchased BPS Bioscience 50051
T1 sequence (Q13547 whole entry): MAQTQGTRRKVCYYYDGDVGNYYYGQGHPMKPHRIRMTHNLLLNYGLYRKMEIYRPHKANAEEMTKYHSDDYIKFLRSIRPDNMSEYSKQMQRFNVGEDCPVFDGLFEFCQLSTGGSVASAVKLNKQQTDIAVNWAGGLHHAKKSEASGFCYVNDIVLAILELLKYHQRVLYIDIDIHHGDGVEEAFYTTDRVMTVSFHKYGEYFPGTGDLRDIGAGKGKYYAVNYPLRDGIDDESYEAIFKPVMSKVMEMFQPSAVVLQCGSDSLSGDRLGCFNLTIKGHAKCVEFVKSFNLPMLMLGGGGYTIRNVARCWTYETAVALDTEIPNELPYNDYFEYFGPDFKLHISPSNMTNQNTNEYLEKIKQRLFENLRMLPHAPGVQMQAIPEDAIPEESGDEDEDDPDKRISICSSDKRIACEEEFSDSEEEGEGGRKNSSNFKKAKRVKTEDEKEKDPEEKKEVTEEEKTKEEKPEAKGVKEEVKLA

[2] = target: T2, human HDAC2 (Homo sapiens, UniProt Q92769); assay: HDAC2 inhibitor enzymatic assay, % inhibition at fixed concentration; format: biochemical; conditions: read-out: %inhibition of HDACs at 10µM of test compound HDAC2; 10 µM compound; mean of two replicates
T2 construct: purchased BPS Bioscience 50002
T2 sequence (Q92769 whole entry): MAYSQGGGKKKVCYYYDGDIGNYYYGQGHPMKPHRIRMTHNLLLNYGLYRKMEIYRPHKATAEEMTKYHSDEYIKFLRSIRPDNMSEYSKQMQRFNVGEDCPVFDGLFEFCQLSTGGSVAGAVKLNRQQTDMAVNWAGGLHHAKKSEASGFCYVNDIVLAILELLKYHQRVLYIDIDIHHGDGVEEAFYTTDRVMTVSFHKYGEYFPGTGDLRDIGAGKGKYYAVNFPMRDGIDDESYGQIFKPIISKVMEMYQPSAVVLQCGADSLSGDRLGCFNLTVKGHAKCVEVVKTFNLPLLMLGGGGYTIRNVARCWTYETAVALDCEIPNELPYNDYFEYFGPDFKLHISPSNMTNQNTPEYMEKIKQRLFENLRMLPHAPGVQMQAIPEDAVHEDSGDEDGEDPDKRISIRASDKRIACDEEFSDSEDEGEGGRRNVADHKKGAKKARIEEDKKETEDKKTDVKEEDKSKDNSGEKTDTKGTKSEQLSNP

[3] = target: T3, human HDAC8 (Homo sapiens, UniProt Q9BY41); assay: HDAC8 inhibitor enzymatic assay, % inhibition at fixed concentration; format: biochemical; conditions: for inhibition at 10 µM: read-out: %inhibition of HDACs at 10µM of test compound HDAC8
T3 construct: purchased BPS Bioscience 50008
T3 sequence (Q9BY41 1-377): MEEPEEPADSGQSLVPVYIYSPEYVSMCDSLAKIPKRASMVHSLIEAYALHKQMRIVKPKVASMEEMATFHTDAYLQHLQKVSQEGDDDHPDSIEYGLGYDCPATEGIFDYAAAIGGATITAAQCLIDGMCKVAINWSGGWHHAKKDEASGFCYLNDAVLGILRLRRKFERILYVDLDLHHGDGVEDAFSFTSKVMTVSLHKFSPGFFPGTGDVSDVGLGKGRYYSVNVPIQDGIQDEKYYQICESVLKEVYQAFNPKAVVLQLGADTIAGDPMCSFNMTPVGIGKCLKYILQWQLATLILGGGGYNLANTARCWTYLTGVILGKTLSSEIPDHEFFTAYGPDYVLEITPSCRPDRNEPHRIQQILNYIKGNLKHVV

[4] = target: T4, human HDAC6 (Homo sapiens, UniProt Q9UBN7); assay: HDAC6 inhibitor enzymatic assay, % inhibition at fixed concentration; conditions: for inhibition at 10 µM: read-out: %inhibition of HDACs at 10µM of test compound HDAC6
T4 sequence (Q9UBN7 1-1215): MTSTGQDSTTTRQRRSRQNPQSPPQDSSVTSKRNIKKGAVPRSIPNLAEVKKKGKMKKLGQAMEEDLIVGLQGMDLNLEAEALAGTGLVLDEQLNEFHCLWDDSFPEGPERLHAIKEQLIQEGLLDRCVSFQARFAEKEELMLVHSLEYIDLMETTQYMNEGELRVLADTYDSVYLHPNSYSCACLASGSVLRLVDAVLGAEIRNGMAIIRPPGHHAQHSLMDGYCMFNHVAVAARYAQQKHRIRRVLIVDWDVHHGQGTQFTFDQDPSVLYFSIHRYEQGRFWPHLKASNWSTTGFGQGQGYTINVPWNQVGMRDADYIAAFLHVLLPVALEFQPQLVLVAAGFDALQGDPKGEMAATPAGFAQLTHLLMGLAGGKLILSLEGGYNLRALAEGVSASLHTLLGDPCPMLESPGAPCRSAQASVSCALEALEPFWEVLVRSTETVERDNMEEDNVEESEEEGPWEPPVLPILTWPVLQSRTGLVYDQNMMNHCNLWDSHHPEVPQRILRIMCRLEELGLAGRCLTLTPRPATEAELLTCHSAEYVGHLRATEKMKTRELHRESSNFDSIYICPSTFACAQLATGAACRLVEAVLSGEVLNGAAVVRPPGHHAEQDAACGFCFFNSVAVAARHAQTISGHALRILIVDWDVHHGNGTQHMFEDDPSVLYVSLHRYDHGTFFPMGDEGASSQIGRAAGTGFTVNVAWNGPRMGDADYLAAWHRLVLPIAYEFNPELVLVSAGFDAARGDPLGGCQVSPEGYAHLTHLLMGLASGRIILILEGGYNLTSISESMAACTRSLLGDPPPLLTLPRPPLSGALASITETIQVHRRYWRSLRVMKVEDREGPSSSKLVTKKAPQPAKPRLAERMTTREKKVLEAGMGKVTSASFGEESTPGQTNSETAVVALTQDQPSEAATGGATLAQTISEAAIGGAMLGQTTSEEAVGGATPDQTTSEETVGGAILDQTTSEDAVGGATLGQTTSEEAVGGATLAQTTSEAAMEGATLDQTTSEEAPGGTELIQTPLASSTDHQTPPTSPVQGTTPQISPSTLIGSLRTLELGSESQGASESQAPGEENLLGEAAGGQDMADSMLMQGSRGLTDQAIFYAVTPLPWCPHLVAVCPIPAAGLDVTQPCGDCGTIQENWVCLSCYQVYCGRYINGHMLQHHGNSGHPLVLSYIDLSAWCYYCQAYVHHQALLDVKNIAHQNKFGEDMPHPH

[5] = target: T4, human HDAC6; assay: IC50 of the test inhibitor against HDAC6 (10-dose enzymatic assay); format: biochemical; set-up: purchased BPS Bioscience 50006
[6] = target: human HDAC4 (Homo sapiens, UniProt P56524); assay: HDAC4 inhibitor enzymatic assay, % inhibition at fixed concentration
Chain of human HDAC4 (P56524 627-1084 limits assumed): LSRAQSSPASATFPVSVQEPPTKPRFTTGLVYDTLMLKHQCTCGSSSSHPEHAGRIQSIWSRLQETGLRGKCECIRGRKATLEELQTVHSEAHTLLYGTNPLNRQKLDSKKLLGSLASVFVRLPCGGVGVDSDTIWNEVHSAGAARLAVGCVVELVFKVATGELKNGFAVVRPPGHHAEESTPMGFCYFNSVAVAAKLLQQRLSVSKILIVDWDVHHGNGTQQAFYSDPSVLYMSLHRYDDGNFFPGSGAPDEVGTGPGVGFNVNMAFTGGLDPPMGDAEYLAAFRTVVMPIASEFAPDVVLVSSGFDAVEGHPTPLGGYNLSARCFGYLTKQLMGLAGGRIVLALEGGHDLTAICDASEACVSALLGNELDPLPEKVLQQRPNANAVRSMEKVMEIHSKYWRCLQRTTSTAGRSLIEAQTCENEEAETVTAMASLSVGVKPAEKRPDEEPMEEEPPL

[7] = target: human HDAC5 (Homo sapiens, UniProt Q9UQL6); assay: HDAC5 inhibitor enzymatic assay, % inhibition at fixed concentration
Chain of human HDAC5 (Q9UQL6 656-1122 limits assumed): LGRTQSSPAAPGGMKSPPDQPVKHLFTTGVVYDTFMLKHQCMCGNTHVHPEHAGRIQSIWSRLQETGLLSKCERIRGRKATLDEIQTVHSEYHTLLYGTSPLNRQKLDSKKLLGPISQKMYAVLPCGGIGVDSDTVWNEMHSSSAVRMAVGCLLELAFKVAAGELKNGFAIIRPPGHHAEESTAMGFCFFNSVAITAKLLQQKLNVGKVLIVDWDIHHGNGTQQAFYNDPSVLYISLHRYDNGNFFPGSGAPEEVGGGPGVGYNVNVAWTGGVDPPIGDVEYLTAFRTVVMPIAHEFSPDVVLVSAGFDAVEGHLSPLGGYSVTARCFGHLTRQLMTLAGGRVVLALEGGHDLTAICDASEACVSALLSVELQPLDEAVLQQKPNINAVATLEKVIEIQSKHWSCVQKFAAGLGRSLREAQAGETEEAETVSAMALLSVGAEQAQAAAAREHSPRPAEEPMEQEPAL

[8] = target: human HDAC9 (Homo sapiens, UniProt Q9UKV0); assay: HDAC9 inhibitor enzymatic assay, % inhibition at fixed concentration
Chain of human HDAC9 (Q9UKV0 1-1066 isoform Q9UKV0-5): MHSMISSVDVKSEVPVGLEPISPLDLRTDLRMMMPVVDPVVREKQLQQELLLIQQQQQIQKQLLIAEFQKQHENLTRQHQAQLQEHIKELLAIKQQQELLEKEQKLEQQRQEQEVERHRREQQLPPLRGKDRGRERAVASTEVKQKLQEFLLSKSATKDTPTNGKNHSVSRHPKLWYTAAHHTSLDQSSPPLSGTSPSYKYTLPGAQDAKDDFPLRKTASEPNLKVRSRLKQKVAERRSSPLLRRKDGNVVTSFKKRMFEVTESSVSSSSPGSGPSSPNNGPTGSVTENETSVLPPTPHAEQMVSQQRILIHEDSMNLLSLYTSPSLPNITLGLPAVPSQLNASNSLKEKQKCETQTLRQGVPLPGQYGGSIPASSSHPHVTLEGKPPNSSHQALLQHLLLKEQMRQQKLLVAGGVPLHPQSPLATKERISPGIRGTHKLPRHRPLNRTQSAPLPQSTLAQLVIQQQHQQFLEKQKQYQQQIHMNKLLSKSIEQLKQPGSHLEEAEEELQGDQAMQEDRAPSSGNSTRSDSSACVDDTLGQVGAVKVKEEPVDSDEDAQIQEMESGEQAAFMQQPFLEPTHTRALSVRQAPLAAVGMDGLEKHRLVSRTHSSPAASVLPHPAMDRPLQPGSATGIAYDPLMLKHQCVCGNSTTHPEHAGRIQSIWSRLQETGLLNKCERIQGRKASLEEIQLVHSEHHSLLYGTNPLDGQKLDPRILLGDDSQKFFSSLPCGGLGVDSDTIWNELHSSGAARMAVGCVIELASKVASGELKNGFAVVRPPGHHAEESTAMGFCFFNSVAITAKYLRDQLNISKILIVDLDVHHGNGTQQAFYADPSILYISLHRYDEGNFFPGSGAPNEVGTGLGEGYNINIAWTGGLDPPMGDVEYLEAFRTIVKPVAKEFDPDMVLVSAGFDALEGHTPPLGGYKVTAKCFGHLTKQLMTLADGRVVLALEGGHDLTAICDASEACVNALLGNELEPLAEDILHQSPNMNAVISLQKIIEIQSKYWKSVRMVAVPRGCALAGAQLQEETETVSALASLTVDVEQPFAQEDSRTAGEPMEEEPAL

[9] = target: T5, human HDAC11 (Homo sapiens, UniProt Q96DB2); assay: HDAC11 inhibitor enzymatic assay, % inhibition at fixed concentration
T5 sequence (Q96DB2 1-347): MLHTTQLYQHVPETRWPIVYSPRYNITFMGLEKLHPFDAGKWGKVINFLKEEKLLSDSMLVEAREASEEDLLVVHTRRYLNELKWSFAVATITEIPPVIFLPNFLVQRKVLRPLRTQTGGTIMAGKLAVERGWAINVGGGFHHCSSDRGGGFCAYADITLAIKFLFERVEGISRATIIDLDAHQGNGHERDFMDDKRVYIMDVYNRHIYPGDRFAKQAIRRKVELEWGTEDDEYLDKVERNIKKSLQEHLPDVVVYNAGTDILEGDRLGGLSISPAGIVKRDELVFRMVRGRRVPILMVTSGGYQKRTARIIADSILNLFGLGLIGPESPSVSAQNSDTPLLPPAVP

[10] = system: CCHE-45 cells (primary choroid plexus carcinoma); assay: Cytotoxicity assay using xCELLigence system; format: cell-based; conditions: xCELLigence, 96 h exposure; mean of three replicates; read-out: CCHE-45 IC50 (µM)±SEM
Method: Established primary Choroid plexus carcinoma (CCHE-45) were cultured as previously described, in RPMI-1640 (Lonza, BE-12-702F) supplemented with 10% Fetal Bovine Serum (FBS, Gibco, 12483–020) and 100 U/ml penicillin and 100 µg/ml streptomycin (Lonza, DE17-602F). Cells were maintained at 37 °C in a 5% CO2 humidified atmosphere.
Cytotoxicity assay by the xCELLigence system was performed using RTCA xCELLigence DP system (ACEA Biosciences, Inc., San Diego, CA, USA) as per manufacturer’s instructions https://www.aceabio.com/products/rtca-dp/, https://www.aceabio.com/products/rtca-sp[65–68]. In brief, after setting up the instruments and blanking the wells with media, CCHE-45 cells were seeded into the 96 well E-plate (ACEA Biosciences) with a density of 20,000 cells/well. Attachment and growth of the cells were monitored every 1 h. Approximately 24 h after seeding, when the cells were in the log growth phase, the cells were exposed to a range of test compound 10a concentrations (3.125, 6.25, 12.5, 25, 50, 100, 200, 400) µM for 96 h. Controls received either medium alone, or medium + DMSO with a final concentration below of 0.5%. For each concentration, duplicates were tested. Experiments were conducted in three biological repeats. Results were analyzed using the RTCA software (Version 2.0). Data was exported and average IC50 value was analyzed.
• Based on previous pilot experiment, the highest SK114 conc. (100µM)
72hrs, thus this experiment was performed with higher concentration
• Cells were incubated with the drug for 96hrs
• Experiment was done in technical duplicates

[11] = read-out: HDAC6 % Activity Repeat1
[12] = read-out: HDAC6 % Activity Repeat2

## O=C(CSc1nc2ccccc2n1Cc1ccccc1)NO [Compound 6a, 2-((1-benzyl-1H-benzo[d]imidazol-2-yl)thio)-N-hydroxyacetamide]
[1]
  inhibition at 10 µM: 6%
[2]
  inhibition at 10 µM: 5%
[3]; 10 µM compound
  inhibition at 10 µM: 14%
other
  melting point: 97 °C
[4]
  inhibition at 10 µM: 2%

## O=C(CSc1nc2ccccc2n1Cc1ccc(Br)cc1)NO [Compound 6b, 2-((1–(4-bromobenzyl)-1H-benzo[d]imidazol-2-yl)thio)-N-hydroxyacetamide]
[1]
  inhibition at 10 µM: 18%
[2]
  inhibition at 10 µM: 6%
[3]; 10 µM compound
  inhibition at 10 µM: 12%
other
  melting point: 167 °C
[4]
  inhibition at 10 µM: 6%

## O=C(CSc1nc2ccccc2n1CC1CCCCC1)NO [Compound 6c, 2-((1-(Cyclohexylmethyl)-1H-benzo[d]imidazol-2-yl)thio)-N-hydroxyacetamide]
[1]
  inhibition at 10 µM: 13%
[2]
  inhibition at 10 µM: 7%
[3]; 10 µM compound
  inhibition at 10 µM: 14%
other
  melting point: 160 °C
[4]
  inhibition at 10 µM: 2%

## O=C(CSc1nc2ccccc2n1CCC1CCCCC1)NO [Compound 6d, 2-((1–(2-cyclohexylethyl)-1H-benzo[d]imidazol-2-yl)thio)-N-hydroxyacetamide]
[1]
  inhibition at 10 µM: 14%
[2]
  inhibition at 10 µM: 3%
[3]; 10 µM compound
  inhibition at 10 µM: 1%
other
  melting point: 157 °C
[4]
  inhibition at 10 µM: 2%

## O=C(CCCSc1nc2ccccc2n1Cc1ccc(Br)cc1)NO [Compound 10b, 4-((1–(4-bromobenzyl)-1H-benzo[d]imidazol-2-yl)thio)-N-hydroxybutanamide]
[1]
  inhibition at 10 µM: 9%
[2]
  inhibition at 10 µM: 9%
[3]; 10 µM compound
  inhibition at 10 µM: 1%
other
  melting point: 153 °C
[4]
  inhibition at 10 µM: 12%

## O=C(CCCSc1nc2ccccc2n1CC1CCCCC1)NO [Compound 10c, 4-((1-(Cyclohexylmethyl)-1H-benzo[d]imidazol-2-yl)thio)-N-hydroxybutanamide]
[1]
  inhibition at 10 µM: 9%
[2]
  inhibition at 10 µM: 8%
[3]; 10 µM compound
  inhibition at 10 µM: 12%
other
  melting point: 149 °C
[4]
  inhibition at 10 µM: 14%

## O=C(CCCSc1nc2ccccc2n1CCC1CCCCC1)NO [Compound 10d, 4-((1–(2-cyclohexylethyl)-1H-benzo[d]imidazol-2-yl)thio)-N-hydroxybutanamide]
[1]
  inhibition at 10 µM: 11%
[2]
  inhibition at 10 µM: 8%
[3]; 10 µM compound
  inhibition at 10 µM: 10%
other
  melting point: 132 °C
[4]
  inhibition at 10 µM: 35%

## CC(=C/C(C)C(=O)c1ccc(N(C)C)cc1)/C=C/C(=O)NO (centres unmarked) [TSA, Trichostatin A, reference compound]
[3]; read-out: % Inhibition HDAC8
  inhibition at 1 µM: 53%
[3]
  inhibition at 10 µM: 89%
[5]; [11]
  activity at 30 pM: 100%
  activity at 0.0001 µM: 98%
  activity at 0.0003 µM: 96%
  activity at 0.001 µM: 79%
  activity at 0.003 µM: 63%
  activity at 0.01 µM: 36%
  activity at 0.03 µM: 15%
  activity at 0.1 µM: 5%
  activity at 0.3 µM: 2%
  activity at 1 µM: 0%
[5]; [12]
  activity at 30 pM: 98%
  activity at 0.0001 µM: 96%
  activity at 0.0003 µM: 89%
  activity at 0.001 µM: 84%
  activity at 0.003 µM: 58%
  activity at 0.01 µM: 34%
  activity at 0.03 µM: 13%
  activity at 0.1 µM: 5%
  activity at 0.3 µM: 2%
  activity at 1 µM: 0%
[6]; read-out: % Inhibition HDAC4
  inhibition at 1 µM: 36%
  inhibition at 100 µM: 92%
[6]; read-out: %inhibition of HDACs at 10µM of test compound HDAC4
  inhibition at 10 µM: 64%
[7]; read-out: % Inhibition HDAC5
  inhibition at 1 µM: 33%
  inhibition at 100 µM: 93%
[7]; read-out: %inhibition of HDACs at 10µM of test compound HDAC5
  inhibition at 10 µM: 64%
[4]; read-out: % Inhibition HDAC6
  inhibition at 1 µM: 100%
[8]; read-out: % Inhibition HDAC9
  inhibition at 1 µM: 15%
  inhibition at 100 µM: 95%
[8]; read-out: %inhibition of HDACs at 10µM of test compound HDAC9
  inhibition at 10 µM: 60%
[9]; read-out: % Inhibition HDAC11
  inhibition at 1 µM: 15%
  inhibition at 100 µM: 91%
[9]; read-out: %inhibition of HDACs at 10µM of test compound HDAC11
  inhibition at 10 µM: 49%

## O=C(CCCCCCC(=O)Nc1ccc([C@H]2O[C@@H](CSc3nc(-c4ccccc4)c(-c4ccccc4)o3)C[C@@H](c3ccc(CO)cc3)O2)cc1)NO [Tubacin, reference compound]
[10]
  IC50: 20 ± 10.2 µM
